Results published in patent US8969413B2.

What was measured:
[1] = target: T1, mGAT2 (Mus musculus, UniProt P31651); details: data from Bolvig et al. 1999; read-out: mGAT2 uptake IC50; cited from earlier work
T1 construct: expressed in transfected cells

[2] = target: T2, hGAT-3 (Homo sapiens, UniProt P48066); details: data from Kvist et al. 2009; read-out: hGAT-3 uptake IC50; cited from earlier work
T2 construct: expressed in transfected cells; host or cells: tsA201 cells, transient (PolyFect)

[3] = target: T3, human ρ1 GABAC receptors (Homo sapiens, UniProt P24046); experiment: GABAC receptor two-electrode voltage clamp in Xenopus laevis oocytes; format: cell-based; details: GABA 1 μM (EC80), clamped at −60 mV
T3 construct: expressed in transfected cells; host or cells: Xenopus laevis oocytes injected with ρ1 mRNA
T3 sequence (P24046 21-479 limits assumed): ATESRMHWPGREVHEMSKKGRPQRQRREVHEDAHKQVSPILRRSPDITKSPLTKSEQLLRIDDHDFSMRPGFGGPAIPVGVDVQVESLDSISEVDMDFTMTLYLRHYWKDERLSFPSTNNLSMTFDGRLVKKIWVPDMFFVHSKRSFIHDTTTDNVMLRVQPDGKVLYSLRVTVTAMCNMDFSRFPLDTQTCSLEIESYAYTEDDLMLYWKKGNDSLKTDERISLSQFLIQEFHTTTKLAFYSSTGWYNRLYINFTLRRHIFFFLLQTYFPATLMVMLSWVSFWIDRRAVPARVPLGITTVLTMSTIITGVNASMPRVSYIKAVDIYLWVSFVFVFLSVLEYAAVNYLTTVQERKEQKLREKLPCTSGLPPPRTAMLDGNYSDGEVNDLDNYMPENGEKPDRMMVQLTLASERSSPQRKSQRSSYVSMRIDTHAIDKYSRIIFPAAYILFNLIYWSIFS
Procedure: Human ρ1 cDNA encapsulated in pcDNA1.1 was linearized with Not1. Linearized cDNA was transcribed to mRNA using the T7 “mMESSAGE mMACHINE” kit (Ambion Inc. Austin, Tex., USA) as previously described. […] Eur. J. Pharmacol. 2001, 430, 185-192. GABAC receptor activity assays were performed in oocytes harvested from Xenopus laevis (housed in the Department of Veterinary Science at the University of Sydney) and defolliculated. The oocytes were stored in ND96 solution (in mM) NaCl (96), KCl (2), MgCl2 (1), CaCl2 (1.8), HEPES (hemi-Na salt; 5) supplemented with sodium pyruvate (2.5), theophylline (0.5), and 50 μg/ml^−1 gentamycin for 2-5 days post-injection.
Electrophysiological methods were performed as previously described. Hertz L, Juurlink B H J, Hertz E, Fosmark H and Schousboe A. Preparation of Primary Cultures of Mouse (Rat) Astrocytes, in A Dissection and Tissue Culture Mnual of the Nervous System (Shahar A, de Vellis J, Vernadakis A and Haber B eds) pp 105-108, Alan R. Liss, Inc., New York, 1989 Stage V-VI oocytes were injected with 10 ng 50 nl^−1 of ρ1 mRNA and then stored at 16° C. Recordings of receptor activity were obtained for 2-5 days by a two-electrode voltage clamp by means of a Geneclamp 500 amplifier (Axon Instruments Inc., Foster City, Calif.), a MacLab 2e recorder (AD Instruments, Sydney, NSW), and Chart version 3.6.3 program. Oocytes were voltage clamped at −60 mV, and the preparation was continually perfused with ND96 solution at room temperature. […] Compound 2 (CPP-115) was tested on three oocytes from at least two harvests.

[4] = target: T4, hGAT-2 (Homo sapiens, UniProt Q9NSD5); details: data from Kvist et al. 2009; read-out: hGAT-2 uptake IC50; cited from earlier work
T4 construct: expressed in transfected cells; host or cells: tsA201 cells, transient (PolyFect)
T4 sequence (Q9NSD5 whole entry): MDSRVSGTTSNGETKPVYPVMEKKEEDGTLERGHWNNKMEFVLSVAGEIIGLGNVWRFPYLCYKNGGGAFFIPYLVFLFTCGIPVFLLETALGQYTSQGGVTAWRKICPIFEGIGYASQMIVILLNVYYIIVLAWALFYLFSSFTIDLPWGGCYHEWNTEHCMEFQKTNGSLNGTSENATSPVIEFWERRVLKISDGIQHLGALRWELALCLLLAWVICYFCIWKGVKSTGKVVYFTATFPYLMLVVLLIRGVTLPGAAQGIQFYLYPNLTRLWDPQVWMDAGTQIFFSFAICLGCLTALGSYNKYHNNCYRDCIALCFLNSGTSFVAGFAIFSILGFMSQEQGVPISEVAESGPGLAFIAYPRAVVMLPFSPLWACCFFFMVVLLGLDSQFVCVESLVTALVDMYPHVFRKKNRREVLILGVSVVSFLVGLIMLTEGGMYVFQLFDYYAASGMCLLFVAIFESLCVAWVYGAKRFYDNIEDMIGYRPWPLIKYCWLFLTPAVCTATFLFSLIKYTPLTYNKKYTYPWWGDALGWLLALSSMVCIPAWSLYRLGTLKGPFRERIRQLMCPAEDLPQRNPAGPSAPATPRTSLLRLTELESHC

[5] = test system: Sprague Dawley rats; experiment: cocaine induced dopamine surge in nucleus accumbens (FIG. 3); details: vigabatrin 300 mg/kg single dose
[6] = test system: Rat; experiment: subcutaneous Metrazol seizure threshold test (scMET); format: in vivo; details: 7 days IP, at 600 mg/kg, Metrazol 70 mg/kg
Procedure: (§1) Subcutaneous injection of the convulsant Metrazol produces clonic seizures in laboratory animals. […] Animals are pretreated with various doses of the test compound given by i.p. injection. At the previously determined TPE of the test compound, the dose of Metrazol which will induce convulsions in 97% of animals (CD97; 85 mg/kg mice) is injected into a loose fold of skin in the midline of the neck. The animals are placed in isolation cages to minimize stress (Swinyard et al, 1961) and observed for the next 30 minutes for the presence or absence of a seizure. An episode of clonic spasms, approximately 3-5 seconds, of the fore and/or hindlimbs, jaws, or vibrissae is taken as the endpoint.

[7] = test system: Mice; experiment: as above; format: in vivo; details: Single IP drug dose, Metrazol 85 mg/kg; up to 1500 mg/kg
Procedure: as §1

[8] = test system: Sprague-Dawley rats; details: vigabatrin, earlier work; cited from earlier work
[9] = test system: Sprague-Dawley rats; details: vigabatrin, Ashby et al. 1999; cited from earlier work
[10] = test system: Mice; experiment: corneal kindling; format: in vivo; details: Single IP drug dose, 3 secs; for ED50: read-out: Corn. Kind. ED50
Source text: Mice are kindled electrically with 3 sec stimulation, 8 mA, 60 Hz, and corneal electrodes to a criterion of 10 consecutive Stage 5 seizures (facial clonus and head nodding progressing to forelimb clonus, and finally rearing and falling accompanied by a generalized clonic seizure as described by Racine). Stage 5 is generally reached after twice daily stimulation for 8 days. With continued stimulation once a day, animals usually progress to a reproducible Stage 5 after 10-14 additional days. At least 72 hours after the mice have been kindled, the test substance is administered either i.p. or p.o. and, at the previously determined TPE, each animal is given the electrical stimulus indicated above. Following stimulation, the animals are observed for the presence or absence of the rearing and falling criteria of a Stage 5 seizure. Treated animals not displaying a Stage 3, 4, or 5 seizure are considered protected. The dose of the test substance is varied between the limits of 0 and 100% efficacy, and the ED50 (mean effective dose) and 95% confidence intervals calculated by probit analysis. Mean values and the S.E.M. are calculated for the length of clonus and seizure duration and p values are determined by the Student's t-test

[11] = test system: Mice; experiment: minimal clonic seizure (6 Hz) test; format: in vivo; details: Single IP drug dose, 3 seconds; for ED50: Mus musculus, ip; for ED50 / 6 Hz TPE: corneal electrode
Source text: Some clinically useful AEDs are ineffective in the standard MES and scMET tests but still have anticonvulsant activities in vivo. In order to identify potential AEDs with this profile, compounds may be tested in the minimal clonic seizure (6 Hz or ‘psychomotor’) test (Barton et al., 2001). […] Test compounds are pre-administered to mice via i.p. injection. At varying times, individual mice (four per time point) are challenged with sufficient current delivered through corneal electrodes to elicit a psychomotor seizure in 97% of animals (32 mA for 3 s) (Toman et al., 1952). Untreated mice will display seizures characterized by a minimal clonic phase followed by stereotyped, automatistic behaviors described originally as being similar to the aura of human patients with partial seizures. Animals not displaying this behavior are considered protected. The test may be evaluated quantitatively by measuring the responses at varying doses at a determined time of peak effect (TPE). This test may also be conducted at 22 and 44 mA if requested by ASP staff.

[12] = test system: Mice; experiment: subcutaneous picrotoxin (scPIC); format: in vivo; details: Single IP drug dose, 2.5 mg/kg PIC; up to 100 mg/kg
Procedure: Bicuculline (Bic) and Picrotoxin (Pic) are chemoconvulsants that cause clonic seizures in a manner similar to Metrazol (see scMET test). […] Therefore, as much as possible it is useful to differentiate novel AEDs pharmacologically. […]. At a previously determined time of peak effect (TPE), the animals are given a subcutaneous injection of either of the noted chemo-convulsants using the convulsive dose (CD97—a dose of 2.7 or 2.5 mg/kg, for Bic and Pic, respectively). The experimental animals are placed in isolation cages to minimize possible crowding stresses (Swinyard et al., 1961) and observed for the next 30 minutes (for Bic) or 45 minutes (for Pic) for the presence or absence of a seizure. An episode of clonic spasms, approximately 3-5 seconds, of the fore and/or hindlimbs, jaws, or vibrissae is used as the experimental endpoint.

[13] = test system: humans; details: trial of 103 subjects, cocaine dependence; cited from earlier work
[14] = test system: human brain GABA; details: after a single dose; cited from earlier work
[15] = test system: patients; details: cited from earlier work
[16] = test system: Sprague-Dawley rats; details: saline/cocaine pairings, cocaine 20 mg/kg i.p.
[17] = test system: Sprague-Dawley rats; experiment: μPET imaging of 11C-raclopride binding after cocaine; details: cocaine 5 mg/kg intravenous, average, preliminary
[18] = target: γ-aminobutyric acid aminotransferase (GABA-AT) (Sus scrofa, UniProt P80147); details: cited from earlier work
Chain of γ-aminobutyric acid aminotransferase (GABA-AT) (P80147 29-500): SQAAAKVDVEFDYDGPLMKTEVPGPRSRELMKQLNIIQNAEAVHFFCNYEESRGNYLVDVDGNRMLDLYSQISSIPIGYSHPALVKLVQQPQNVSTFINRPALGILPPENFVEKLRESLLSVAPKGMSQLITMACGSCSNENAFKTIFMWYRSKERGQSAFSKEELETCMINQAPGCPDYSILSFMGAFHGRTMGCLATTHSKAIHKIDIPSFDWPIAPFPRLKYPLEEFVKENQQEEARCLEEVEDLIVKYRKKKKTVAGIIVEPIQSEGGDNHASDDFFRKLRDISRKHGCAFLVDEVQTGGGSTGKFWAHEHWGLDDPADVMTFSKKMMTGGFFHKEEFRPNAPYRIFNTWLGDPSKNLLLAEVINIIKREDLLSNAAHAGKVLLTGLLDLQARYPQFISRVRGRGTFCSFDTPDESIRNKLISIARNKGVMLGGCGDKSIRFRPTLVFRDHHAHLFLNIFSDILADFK

T1 sequence (P31651 whole entry): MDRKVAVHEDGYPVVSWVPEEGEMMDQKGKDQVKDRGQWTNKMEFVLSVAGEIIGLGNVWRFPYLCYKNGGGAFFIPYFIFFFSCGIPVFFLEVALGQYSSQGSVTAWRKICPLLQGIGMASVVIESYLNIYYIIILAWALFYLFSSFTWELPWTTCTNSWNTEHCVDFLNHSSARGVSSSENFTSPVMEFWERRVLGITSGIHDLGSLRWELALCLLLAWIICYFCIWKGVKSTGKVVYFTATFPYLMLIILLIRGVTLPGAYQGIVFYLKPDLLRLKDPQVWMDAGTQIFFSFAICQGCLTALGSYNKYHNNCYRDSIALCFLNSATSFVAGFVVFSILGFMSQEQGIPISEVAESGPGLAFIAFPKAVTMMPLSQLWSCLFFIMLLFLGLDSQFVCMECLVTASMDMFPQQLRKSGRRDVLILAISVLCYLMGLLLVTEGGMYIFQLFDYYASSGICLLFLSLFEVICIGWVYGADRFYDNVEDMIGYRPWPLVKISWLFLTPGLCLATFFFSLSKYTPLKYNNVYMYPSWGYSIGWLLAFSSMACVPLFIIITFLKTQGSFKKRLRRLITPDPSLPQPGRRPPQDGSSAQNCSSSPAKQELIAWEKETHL
T2 sequence (P48066 whole entry): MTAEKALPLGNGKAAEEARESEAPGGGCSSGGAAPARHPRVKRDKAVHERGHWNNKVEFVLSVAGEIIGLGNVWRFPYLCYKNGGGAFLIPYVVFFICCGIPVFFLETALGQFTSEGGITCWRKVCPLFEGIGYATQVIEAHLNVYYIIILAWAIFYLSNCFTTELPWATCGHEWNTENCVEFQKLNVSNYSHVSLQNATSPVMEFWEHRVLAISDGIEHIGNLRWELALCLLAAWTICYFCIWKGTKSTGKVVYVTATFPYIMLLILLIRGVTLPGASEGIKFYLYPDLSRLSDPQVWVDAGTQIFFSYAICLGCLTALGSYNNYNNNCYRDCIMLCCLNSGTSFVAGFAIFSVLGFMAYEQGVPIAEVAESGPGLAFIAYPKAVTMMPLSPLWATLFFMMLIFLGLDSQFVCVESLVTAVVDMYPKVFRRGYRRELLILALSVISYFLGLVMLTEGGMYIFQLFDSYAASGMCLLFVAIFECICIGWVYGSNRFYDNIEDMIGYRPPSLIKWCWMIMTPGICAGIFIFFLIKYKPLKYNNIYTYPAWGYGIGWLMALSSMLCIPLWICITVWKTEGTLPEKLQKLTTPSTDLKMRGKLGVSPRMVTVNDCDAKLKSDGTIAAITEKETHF

NCCCC(=O)O [GABA, γ-aminobutyric acid]
IC50 [1]: 51 µM | IC50 [2]: 10 µM | activation of current in oocytes [3]: activated an inward current | IC50 [4]: 11 µM

C=CC(N)CCC(=O)O (centres unmarked) [Vigabatrin, γ-vinyl GABA, reference compound]
dopamine increase after cocaine challenge [5]: > 300% of baseline | scMET protection [6]: 75% protection at 600 | scMET protection [7]: Minimal protection up | dose required for similar findings (block of cocaine-induced CPP) [8]: 300 mg/kg | dose effective previously against cocaine-induced dopamine increase [9]: 300 mg/kg | ED50 ([10]; 192 h, primed @ 8 mA, 60 Hz, for 8 days): 80.4 mg/kg | ED50 ([10]; 288 h, primed @ 3 mA, 50 Hz, for 12 days): 159 mg/kg | Corn. Kind. TPE ([10]; primed @ 8 mA, 60 Hz, for 8 days): TPE 4 hours | ED50 ([11]; 32 mA): 23.4 mg/kg | ED50 ([11]; 44 mA): 154 mg/kg | 6 Hz protection ([11]; 22 mA, all times @ 100 mg/kg): “good protection” @ | 6 Hz TPE ([11]; 32 mA): TPE 4 hours | 6 Hz TPE ([11]; 44 mA): TPE 4 hours | scPIC protection [12]: Minimal protection up | subjects who achieved abstinence [13]: 28.0% | brain GABA levels [14]: remain substantially elevated for several days | share of patients affected with visual field defects ([15]; after multiple years of therapy): One third or more of patients | patients with visual field defects ([15]; following chronic administration): 25-50% | occurrence of visual field defect ([15]; shorter duration exposure, stimulant addiction studies): does not show any occurrence of visual field defect | time after initiation of therapy at which visual field defects were detectable ([15]; some patients): less than 2 months

COC(=O)[C@H]1[C@@H](OC(=O)c2ccccc2)C[C@@H]2CC[C@H]1N2C [cocaine, reference compound]
time spent in the other chamber [16]: 4.8 ± 2.8 min | time spent in cocaine-paired chamber ([16]; p<0.01): 12.2 ± 1.7 min | reduction of 11C-raclopride binding [17]: 22%

N[C@@H]1C=C[C@H](C(=O)O)C1 [compound 1, (1R,4S)-4-amino-cyclopent-2-ene-1-carboxylic acid]
specificity constant relative to GABA ([18]; substrate of GABA-AT): almost five times greater than that of GABA

C=C1C[C@H](C(=O)O)C[C@@H]1N [compound 6, (1S,3S)-3-amino-4-methylenyl-1-cyclopentanoic acid]
inactivation of GABA-AT ([18]; without 2-mercaptoethanol): inactivation of GABA-AT was observed
